Data taken from patent US11406619B2, “Injectable formulations” (priority 2020, dated 2022).
Marks after values point to notes of the source that are not given here.

What was measured:
[1] = HPLC purity/related substances of formulations at preparation and on storage; conditions: for Total related substances: 2.5 mg/mL in 40 mM B-R buffer
[2] = pH readings of formulations at preparation and on storage; format: physicochemical; conditions: for pH / drop in pH on preparation: 2.5 mg/mL in 40 mM B-R buffer
Method: pH readings were obtained using a Mettler Toledo MP225 pH meter. The electrode probe was inserted into the test solutions, contained in a glass vial, with brief stirring at ambient temperature.
Instrument verification was performed prior and post each use using, as supplied, pH buffer solutions over the range pH 1.68 to 10.01 for confirmation of accuracy.

human brain activity = conditions: injection into human volunteers, relative to placebo; cited from earlier work
[3] = Appearance of formulations at preparation and on storage; format: physicochemical; conditions: 10 mg/mL in aqueous vehicles
Method: Appearance and pH results for formulation 10 (technical batch) at preparation and following storage at 2-8° C., 25° C./60% relative humidity (RH) and 40°/75% RH are presented in Table 17. At T=0 (the initial analysis), the pH met the specification of 3.8-4.2 and the osmolality met the specification of 270-330 mOsm/kg (296 mOsm/kg). […] However, at 40° C./75% RH there is an obvious colour change in the product at T=6 months. There was an indication of colour change at the 2 and 3 month points on storage at 40° C./75% RH when compared to the other storage conditions, but at 6 months the colour change was obvious.
Appearance and pH results for formulation 10 (clinical batch) at preparation and following storage at 2-8° C., 25° C./60% relative humidity (RH) and 40°/75% RH are presented in Table 24. […] There was an indication of colour change at the 3 month point.

[4] = HPLC assay (concentration / percentage recovery) of formulations at preparation and on storage; conditions: for Concentration (assay): 40 mM B-R buffer
[5] = nominal pH 5.0, Day 17 (10 days 40° C. then 7 days 50° C.)
[6] = nominal pH 6.0, Day 17 (10 days 40° C. then 7 days 50° C.)
[7] = nominal pH 6.5, Day 17 (10 days 40° C. then 7 days 50° C.)
[8] = nominal pH 7.0, Day 17 (10 days 40° C. then 7 days 50° C.)
[9] = nominal pH 7.0, on completion of light stressing (200 watt hours UVA, 0.6 million lux hours)
[10] = nominal pH 7.0 sparged N2, Day 17 (10 days 40° C. then 7 days 50° C.)
[11] = nominal pH 7.5, Day 17 (10 days 40° C. then 7 days 50° C.)
[12] = nominal pH 8.0, Day 17 (10 days 40° C. then 7 days 50° C.)
[13] = nominal pH 9.0, Day 7 (7 days 40° C.)
[14] = nominal pH 9.0, Day 17 (10 days 40° C. then 7 days 50° C.)
[15] = B-R buffer, nominal pH 7, Day 17 (10 days 40° C., 7 days 50° C.)
[16] = B-R buffer, nominal pH 7 UV light exposure (200 watt hours UVA, 0.6 million luxhours)
[17] = B-R buffer, nominal pH 7.5, Day 17 (10 days 40° C., 7 days 50° C.)
[18] = B-R buffer, nominal pH 8, Day 17 (10 days 40° C., 7 days 50° C.)
[19] = B-R buffer, nominal pH 9, Day 17 (10 days 40° C., 7 days 50° C.)
[20] = nominal pH 4.0, Day 7 (7 days 40° C.)
[21] = nominal pH 4.0, Day 17 (10 days 40° C. then 7 days 50° C.)
[22] = nominal pH 5.0, Day 7 (7 days 40° C.)
[23] = nominal pH 6.0, Day 7 (7 days 40° C.)
[24] = nominal pH 6.5, Day 7 (7 days 40° C.)
[25] = nominal pH 7.0, Day 7 (7 days 40° C.)
[26] = nominal pH 7.5, Day 7 (7 days 40° C.)
[27] = nominal pH 8.0, Day 7 (7 days 40° C.)
[28] = phosphate buffer pH 7.4 in 0.45% w/v sodium chloride, both 30 mM and 50 mM buffer strengths

In the case of DMT fumarate [SPL026], the Total related substances [1, 5] is reported as 0.07%, the Total related substances [1, 6] is reported as 0.09% and the Total related substances [1, 7] is reported as 0.10%. The Total related substances [1, 8] was 0.26%, the Total related substances [1, 9] was 1.68^a % and the Total related substances ([1]; nominal pH 7.0, on completion of light stressing (200 watt hours UVA, 0.6 million lux hours), listed as DMT fumarate) was 1.68%. It also gave a Total related substances [1, 10] of 0.05%, a Total related substances [1, 11] of 0.42% and a Total related substances [1, 12] of 0.58%. The Total related substances [1, 13] was 0.10%, the Total related substances [1, 14] was 0.61% and the “related substance at RRT 1.56, percentage area of total peak area” value ([1]; B-R buffer, nominal pH 5, Day 17 (10 days 40° C., 7 days 50° C.)) was 0.07%. The “related substance at RRT 1.56, percentage area of total peak area” value ([1]; B-R buffer, nominal pH 6, Day 17 (10 days 40° C., 7 days 50° C.)) was 0.09%, the “related substance at RRT 1.56, percentage area of total peak area” value ([1]; B-R buffer, nominal pH 6.5, Day 17 (10 days 40° C., 7 days 50° C.)) was 0.10% and the “related substance at RRT 1.56, percentage area of total peak area” value ([1]; B-R buffer, nominal pH 6.5 with N2 (sparged with nitrogen), Day 17 (10 days 40° C., 7 days 50° C.)) was 0.05%. For the same substance, the “related substance at RRT 0.73, percentage area of total peak area” value [1, 15] was 0.09%, the “related substance at RRT 0.91, percentage area of total peak area” value [1, 15] was 0.05% and the “related substance at RRT 1.56, percentage area of total peak area” value [1, 15] was 0.12%. The “related substance at RRT 0.54, percentage area of total peak area” value [1, 16] was 0.05%, the “related substance at RRT 0.62, percentage area of total peak area” value [1, 16] was 0.17% and the “related substance at RRT 0.64, percentage area of total peak area” value [1, 16] was 0.54%. For the same substance, the “related substance at RRT 0.73, percentage area of total peak area” value [1, 16] was 0.23%, the “related substance at RRT 0.74, percentage area of total peak area” value [1, 16] was 0.15% and the “related substance at RRT 0.77, percentage area of total peak area” value [1, 16] was 0.06%. For the same substance, the “related substance at RRT 0.80, percentage area of total peak area” value [1, 16] was 0.07%, the “related substance at RRT 1.17, percentage area of total peak area” value [1, 16] was 0.18% and the “related substance at RRT 1.20, percentage area of total peak area” value [1, 16] was 0.13%. The “related substance at RRT 1.56, percentage area of total peak area” value [1, 16] was 0.10%, the “related substance at RRT 0.73, percentage area of total peak area” value [1, 17] was 0.14% and the “related substance at RRT 0.91, percentage area of total peak area” value [1, 17] was 0.07%. The “related substance at RRT 1.11, percentage area of total peak area” value [1, 17] was 0.12%, the “related substance at RRT 1.56, percentage area of total peak area” value [1, 17] was 0.09% and the “related substance at RRT 0.73, percentage area of total peak area” value [1, 18] was 0.15%. For the same substance, the “related substance at RRT 0.91, percentage area of total peak area” value [1, 18] was 0.09%, the “related substance at RRT 0.95, percentage area of total peak area” value [1, 18] was 0.05% and the “related substance at RRT 1.11, percentage area of total peak area” value [1, 18] was 0.22%. The “related substance at RRT 1.56, percentage area of total peak area” value [1, 18] was 0.07%, the “related substance at RRT 0.73, percentage area of total peak area” value [1, 19] was 0.12% and the “related substance at RRT 0.91, percentage area of total peak area” value [1, 19] was 0.11%. For the same substance, the “related substance at RRT 1.11, percentage area of total peak area” value [1, 19] was 0.12%, the “related substance at RRT 1.56, percentage area of total peak area” value [1, 19] was 0.38% and the pH [2, 20] was 3.84. It also gave a pH [2, 21] of 3.84, a pH ([2]; nominal pH 4.0, Initial) of 3.86 and a pH [2, 22] of 4.55. It also gave a pH [2, 5] of 4.52, a pH ([2]; nominal pH 5.0, Initial) of 4.57 and a pH [2, 23] of 5.07. For the same substance, the pH [2, 6] was 5.06, the pH ([2]; nominal pH 6.0, Initial) was 5.08 and the pH [2, 24] was 5.33. It also gave a pH [2, 7] of 5.31, a pH ([2]; nominal pH 6.5, Initial) of 5.33 and a pH ([2]; nominal pH 6.5 sparged N2, Day 17 (10 days 40° C. then 7 days 50° C.)) of 6.09. The pH ([2]; nominal pH 6.5 sparged N2, Initial) was 6.12, the pH [2, 25] was 6.10 and the pH [2, 8] was 6.10. The pH ([2]; nominal pH 7.0, Initial) was 6.12, the pH ([2]; nominal pH 7.0 UV Light, pH on completion of testing) was 6.07^a and the pH [2, 26] was 6.58. For the same substance, the pH [2, 11] was 6.59, the pH ([2]; nominal pH 7.5, Initial) was 6.60 and the pH [2, 27] was 6.86. It also gave a pH [2, 12] of 6.84, a pH ([2]; nominal pH 8.0, Initial) of 6.87 and a pH [2, 13] of 7.72. For the same substance, the pH [2, 14] was 7.70, the pH ([2]; nominal pH 9.0, Initial) was 7.71 and the “drop in pH on preparation” value ([2]; pH 4 formulation) was 0.14 units. For the same substance, the “drop in pH on preparation” value ([2]; pH 9 formulation) was 1.29 units, the “pH of the solutions” value ([2]; 10 mg/mL in the aqueous vehicles of the initial tests) was 3-4 and the “pH after overnight storage” value ([2]; 20 mg/mL in B-R buffer, overnight storage under ambient conditions) was “no changes from the initial pH values”. For the same substance, the “initial pH” value ([2]; phosphate buffer at 20 mM) was 5.9, the “pH on storage of the solution overnight in the laboratory” value ([2]; phosphate buffer at 20 mM) was “continued to drop” and the “initial pH” value [2, 28] was over 6.5. The pH on storage [2, 28] was “remained stable”, the “alpha power (EEG)” value (human brain activity) was “suppressed alpha power” and the “delta and theta power (EEG)” value (human brain activity) was “normalized/increased delta and theta power”. The Appearance ([3]; after filtration (0.2 μm filters)) was “clear colourless solution”, the Appearance ([3]; before filtration) was “clear beige colour” and the content after filtration ([4]; 20 mg/mL in B-R buffer, pH 4 to 10, filtered after overnight storage) was “approximately the same content”. The “Concentration (assay)” value [4, 20] was 2.57 mg/mL, the “Concentration (assay)” value [4, 21] was 2.52 mg/mL and the “Concentration (assay)” value ([4]; nominal pH 4.0, Initial) was 2.47 mg/mL. For the same substance, the “Concentration (assay)” value [4, 22] was 2.48 mg/mL, the “Concentration (assay)” value [4, 5] was 2.52 mg/mL and the “Concentration (assay)” value ([4]; nominal pH 5.0, Initial) was 2.50 mg/mL. For the same substance, the “Concentration (assay)” value [4, 23] was 2.56 mg/mL, the “Concentration (assay)” value [4, 6] was 2.48 mg/mL and the “Concentration (assay)” value ([4]; nominal pH 6.0, Initial) was 2.51 mg/mL. The “Concentration (assay)” value [4, 24] was 2.59 mg/mL, the “Concentration (assay)” value [4, 7] was 2.51 mg/mL and the “Concentration (assay)” value ([4]; nominal pH 6.5, Initial) was 2.49 mg/mL. The “Concentration (assay)” value [4, 25] was 2.54 mg/mL, the “Concentration (assay)” value [4, 8] was 2.45 mg/mL and the “Concentration (assay)” value ([4]; nominal pH 7.0, Initial) was 2.54 mg/mL. For the same substance, the “Concentration (assay)” value [4, 9] was 2.26^a mg · mL^−1, the “Concentration (assay)” value ([4]; nominal pH 7.0 UV Light aliquot, Initial) was 2.54 mg/mL and the “Concentration (assay)” value ([4]; nominal pH 7.0 sparged N2, Day 7 (7 days 40° C.)) was 2.54 mg/mL. The “Concentration (assay)” value [4, 10] was 2.51 mg/mL, the “Concentration (assay)” value ([4]; nominal pH 7.0 sparged N2, Initial) was 2.54 mg/mL and the “Concentration (assay)” value [4, 26] was 2.55 mg/mL. For the same substance, the “Concentration (assay)” value [4, 11] was 2.46 mg/mL, the “Concentration (assay)” value ([4]; nominal pH 7.5, Initial) was 2.50 mg/mL and the “Concentration (assay)” value [4, 27] was 2.49 mg/mL. For the same substance, the “Concentration (assay)” value [4, 12] was 2.42 mg/mL, the “Concentration (assay)” value ([4]; nominal pH 8.0, Initial) was 2.49 mg/mL and the “Concentration (assay)” value [4, 13] was 2.41 mg/mL. The “Concentration (assay)” value [4, 14] was 2.46 mg/mL and the “Concentration (assay)” value ([4]; nominal pH 9.0, Initial) was 2.47 mg/mL.
